# Tested on: S. aureus
# Experiment: in vitro agar Petri dish dilution test, Sa
# Assay type: cell-based
# Conditions: Staphylococcus aureus, 100% inhibition
# Description: (§1) The compounds of this invention have antimicrobial utility. In conventional in vitro agar Petri dish dilution tests, the following compounds and some corresponding art compounds gave 100% inhibition of the following organisms at the indicated concentrations in parts per million.
row,SMILES,MIC [µg/mL]
1,"O=S(=O)(Br)c1cccs1 [H, 2-Thiophenesulfonyl Bromide]",500
2,"O=S(=O)(Cl)c1cc(Br)c(Br)s1 [4,5-Br2, reference compound]",> 100
3,"O=S(=O)(Cl)c1sc(Br)c(Br)c1Br [3,4,5-Br3, reference compound]",> 100
4,"O=S(=O)(Cl)c1cccs1 [H, 2-thiophenesulfonyl chloride, reference compound]",> 500
5,"O=S(=O)(Br)c1ccc(Cl)s1 [5-Cl, 5-Chloro-2-thiophenesulfonyl Bromide]",500
6,"O=S(=O)(Br)c1sc(Br)cc1Br [3,5-Br2]",50
7,CCc1ccc(S(=O)(=O)Br)s1 [5-C2 H5],500
8,"O=S(=O)(Br)c1sc(Br)c(Br)c1Br [3,4,5-Br3]",50

# Tested on: E. coli
# Experiment: in vitro agar Petri dish dilution test, Ec
# Assay type: cell-based
# Conditions: Escherichia coli, 100% inhibition
# Description: as §1
row,SMILES,MIC [µg/mL]
1,"O=S(=O)(Br)c1cccs1 [H, 2-Thiophenesulfonyl Bromide]",100
2,"O=S(=O)(Cl)c1cccs1 [H, 2-thiophenesulfonyl chloride, reference compound]",> 500
3,"O=S(=O)(Br)c1ccc(Cl)s1 [5-Cl, 5-Chloro-2-thiophenesulfonyl Bromide]",100
4,CCc1ccc(S(=O)(=O)Br)s1 [5-C2 H5],500

# Tested on: C. albicans
# Experiment: in vitro agar Petri dish dilution test, Ca
# Assay type: cell-based
# Conditions: Candida albicans, 100% inhibition
# Description: as §1
row,SMILES,MIC [µg/mL]
1,"O=S(=O)(Br)c1cccs1 [H, 2-Thiophenesulfonyl Bromide]",100
2,"O=S(=O)(Cl)c1cc(Br)c(Br)s1 [4,5-Br2, reference compound]",> 100
3,"O=S(=O)(Cl)c1sc(Br)c(Br)c1Br [3,4,5-Br3, reference compound]",> 100
4,"O=S(=O)(Cl)c1cccs1 [H, 2-thiophenesulfonyl chloride, reference compound]",> 500
5,"O=S(=O)(Br)c1ccc(Cl)s1 [5-Cl, 5-Chloro-2-thiophenesulfonyl Bromide]",100
6,"O=S(=O)(Br)c1sc(Br)cc1Br [3,5-Br2]",100
7,CCc1ccc(S(=O)(=O)Br)s1 [5-C2 H5],500
8,"O=S(=O)(Br)c1sc(Br)c(Br)c1Br [3,4,5-Br3]",100

# Tested on: T. mentagrophytes
# Experiment: in vitro agar Petri dish dilution test, Tm
# Assay type: cell-based
# Conditions: Trichophyton mentagrophytes, 100% inhibition
# Description: as §1
# Tm = T. mentagrophytes -
row,SMILES,MIC [µg/mL]
1,"O=S(=O)(Br)c1cccs1 [H, 2-Thiophenesulfonyl Bromide]",100
2,"O=S(=O)(Cl)c1cc(Br)c(Br)s1 [4,5-Br2, reference compound]",100
3,"O=S(=O)(Cl)c1sc(Br)c(Br)c1Br [3,4,5-Br3, reference compound]",> 100
4,"O=S(=O)(Cl)c1cccs1 [H, 2-thiophenesulfonyl chloride, reference compound]",> 500
5,"O=S(=O)(Br)c1ccc(Cl)s1 [5-Cl, 5-Chloro-2-thiophenesulfonyl Bromide]",100
6,"O=S(=O)(Br)c1sc(Br)cc1Br [3,5-Br2]",50
7,CCc1ccc(S(=O)(=O)Br)s1 [5-C2 H5],100
8,"O=S(=O)(Br)c1sc(Br)c(Br)c1Br [3,4,5-Br3]",50

# Tested on: A. niger
# Experiment: in vitro agar Petri dish dilution test, An
# Assay type: cell-based
# Conditions: Aspergillus niger, 100% inhibition
# Description: as §1
row,SMILES,MIC [µg/mL]
1,"O=S(=O)(Br)c1cccs1 [H, 2-Thiophenesulfonyl Bromide]",100
2,"O=S(=O)(Cl)c1cc(Br)c(Br)s1 [4,5-Br2, reference compound]",> 100
3,"O=S(=O)(Cl)c1sc(Br)c(Br)c1Br [3,4,5-Br3, reference compound]",> 100
4,"O=S(=O)(Cl)c1cccs1 [H, 2-thiophenesulfonyl chloride, reference compound]",> 500
5,"O=S(=O)(Br)c1ccc(Cl)s1 [5-Cl, 5-Chloro-2-thiophenesulfonyl Bromide]",100
6,CCc1ccc(S(=O)(=O)Br)s1 [5-C2 H5],100
7,"O=S(=O)(Br)c1sc(Br)c(Br)c1Br [3,4,5-Br3]",50

# Tested on: B. subtilis
# Experiment: in vitro agar Petri dish dilution test, Bs
# Assay type: cell-based
# Conditions: Bacillus subtilis, 100% inhibition
# Description: as §1
row,SMILES,MIC [µg/mL]
1,"O=S(=O)(Br)c1cccs1 [H, 2-Thiophenesulfonyl Bromide]",100
2,"O=S(=O)(Cl)c1cc(Br)c(Br)s1 [4,5-Br2, reference compound]",> 100
3,"O=S(=O)(Cl)c1sc(Br)c(Br)c1Br [3,4,5-Br3, reference compound]",> 100
4,"O=S(=O)(Cl)c1cccs1 [H, 2-thiophenesulfonyl chloride, reference compound]",> 500
5,"O=S(=O)(Br)c1ccc(Cl)s1 [5-Cl, 5-Chloro-2-thiophenesulfonyl Bromide]",500
6,"O=S(=O)(Br)c1sc(Br)cc1Br [3,5-Br2]",50
7,CCc1ccc(S(=O)(=O)Br)s1 [5-C2 H5],100
8,"O=S(=O)(Br)c1sc(Br)c(Br)c1Br [3,4,5-Br3]",50

# Tested on: A. aerogenes
# Experiment: in vitro agar Petri dish dilution test, Aa
# Assay type: cell-based
# Conditions: Klebsiella aerogenes, 100% inhibition
# Description: as §1
row,SMILES,MIC [µg/mL]
1,"O=S(=O)(Br)c1cccs1 [H, 2-Thiophenesulfonyl Bromide]",100
2,"O=S(=O)(Cl)c1cc(Br)c(Br)s1 [4,5-Br2, reference compound]",> 100
3,"O=S(=O)(Cl)c1sc(Br)c(Br)c1Br [3,4,5-Br3, reference compound]",> 100
4,"O=S(=O)(Cl)c1cccs1 [H, 2-thiophenesulfonyl chloride, reference compound]",> 500
5,"O=S(=O)(Br)c1ccc(Cl)s1 [5-Cl, 5-Chloro-2-thiophenesulfonyl Bromide]",500
6,"O=S(=O)(Br)c1sc(Br)cc1Br [3,5-Br2]",50
7,CCc1ccc(S(=O)(=O)Br)s1 [5-C2 H5],500
8,"O=S(=O)(Br)c1sc(Br)c(Br)c1Br [3,4,5-Br3]",> 100

# Tested on: C. pelliculosa
# Experiment: in vitro agar Petri dish dilution test, Cp
# Assay type: cell-based
# Conditions: Hansenula anomala, 100% inhibition
# Description: as §1
row,SMILES,MIC [µg/mL]
1,"O=S(=O)(Br)c1cccs1 [H, 2-Thiophenesulfonyl Bromide]",100
2,"O=S(=O)(Cl)c1cc(Br)c(Br)s1 [4,5-Br2, reference compound]",100
3,"O=S(=O)(Cl)c1sc(Br)c(Br)c1Br [3,4,5-Br3, reference compound]",> 100
4,"O=S(=O)(Cl)c1cccs1 [H, 2-thiophenesulfonyl chloride, reference compound]",> 500
5,"O=S(=O)(Br)c1ccc(Cl)s1 [5-Cl, 5-Chloro-2-thiophenesulfonyl Bromide]",100
6,"O=S(=O)(Br)c1sc(Br)cc1Br [3,5-Br2]",50
7,CCc1ccc(S(=O)(=O)Br)s1 [5-C2 H5],100
8,"O=S(=O)(Br)c1sc(Br)c(Br)c1Br [3,4,5-Br3]",50

# Tested on: P. pullulans
# Experiment: in vitro agar Petri dish dilution test, Pp
# Assay type: cell-based
# Conditions: 100% inhibition
# Description: as §1
row,SMILES,MIC [µg/mL]
1,"O=S(=O)(Br)c1cccs1 [H, 2-Thiophenesulfonyl Bromide]",100
2,"O=S(=O)(Cl)c1cccs1 [H, 2-thiophenesulfonyl chloride, reference compound]",> 500
3,"O=S(=O)(Br)c1ccc(Cl)s1 [5-Cl, 5-Chloro-2-thiophenesulfonyl Bromide]",100
4,"O=S(=O)(Br)c1sc(Br)cc1Br [3,5-Br2]",100
5,CCc1ccc(S(=O)(=O)Br)s1 [5-C2 H5],100
6,"O=S(=O)(Br)c1sc(Br)c(Br)c1Br [3,4,5-Br3]",50

# Tested on: S. typhosa
# Experiment: in vitro agar Petri dish dilution test, St
# Assay type: cell-based
# Conditions: 100% inhibition
# Description: as §1
row,SMILES,MIC [µg/mL]
1,"O=S(=O)(Cl)c1cccs1 [H, 2-thiophenesulfonyl chloride, reference compound]",> 500
2,"O=S(=O)(Br)c1sc(Br)cc1Br [3,5-Br2]",50

# Tested on: Pseudomonas Sp. Strain 10
# Experiment: in vitro agar Petri dish dilution test, Ps 10
# Assay type: cell-based
# Conditions: 100% inhibition
# Description: as §1
# Ps 10 = Pseudomonas Sp. Strain 10
row,SMILES,MIC [µg/mL]
1,"O=S(=O)(Br)c1cccs1 [H, 2-Thiophenesulfonyl Bromide]",100
2,"O=S(=O)(Cl)c1cccs1 [H, 2-thiophenesulfonyl chloride, reference compound]",> 500
3,"O=S(=O)(Br)c1ccc(Cl)s1 [5-Cl, 5-Chloro-2-thiophenesulfonyl Bromide]",500
4,"O=S(=O)(Br)c1sc(Br)cc1Br [3,5-Br2]",50
5,CCc1ccc(S(=O)(=O)Br)s1 [5-C2 H5],100
6,"O=S(=O)(Br)c1sc(Br)c(Br)c1Br [3,4,5-Br3]",50

# Tested on: M. phlei
# Experiment: in vitro agar Petri dish dilution test, Mp
# Assay type: cell-based
# Conditions: Mycolicibacterium phlei, 100% inhibition
# Description: as §1
row,SMILES,MIC [µg/mL]
1,"O=S(=O)(Br)c1cccs1 [H, 2-Thiophenesulfonyl Bromide]",100
2,"O=S(=O)(Cl)c1cccs1 [H, 2-thiophenesulfonyl chloride, reference compound]",500
3,"O=S(=O)(Br)c1ccc(Cl)s1 [5-Cl, 5-Chloro-2-thiophenesulfonyl Bromide]",500

# Tested on: R. nigricans
# Experiment: in vitro agar Petri dish dilution test, Rn
# Assay type: cell-based
# Conditions: Rhizopus stolonifer, 100% inhibition
# Description: as §1
row,SMILES,MIC [µg/mL]
1,"O=S(=O)(Br)c1cccs1 [H, 2-Thiophenesulfonyl Bromide]",100
2,"O=S(=O)(Cl)c1cccs1 [H, 2-thiophenesulfonyl chloride, reference compound]",> 500
3,"O=S(=O)(Br)c1ccc(Cl)s1 [5-Cl, 5-Chloro-2-thiophenesulfonyl Bromide]",100
4,CCc1ccc(S(=O)(=O)Br)s1 [5-C2 H5],100

# Tested on: C. IPS
# Experiment: in vitro agar Petri dish dilution test, CI
# Assay type: cell-based
# Conditions: 100% inhibition
# Description: as §1
row,SMILES,MIC [µg/mL]
1,"O=S(=O)(Cl)c1cccs1 [H, 2-thiophenesulfonyl chloride, reference compound]",> 500

# Tested on: T. Sp. Madison P42
# Experiment: in vitro agar Petri dish dilution test, Tr 42
# Assay type: cell-based
# Conditions: 100% inhibition
# Description: as §1
# Tr 42 = T. Sp. Madison P42
row,SMILES,MIC [µg/mL]
1,"O=S(=O)(Br)c1cccs1 [H, 2-Thiophenesulfonyl Bromide]",100
2,"O=S(=O)(Cl)c1cccs1 [H, 2-thiophenesulfonyl chloride, reference compound]",> 500
3,"O=S(=O)(Br)c1ccc(Cl)s1 [5-Cl, 5-Chloro-2-thiophenesulfonyl Bromide]",100
4,"O=S(=O)(Br)c1sc(Br)cc1Br [3,5-Br2]",100
5,CCc1ccc(S(=O)(=O)Br)s1 [5-C2 H5],100
6,"O=S(=O)(Br)c1sc(Br)c(Br)c1Br [3,4,5-Br3]",50

# — patent US4264774A, “2-Thiophenesulfonyl bromides” (The Dow Chemical Company, priority 1976, dated 1981)
